Results reported in patent US20100317730A1, “Treatment for menopausal and perimenopausal vasomotor symptons” (priority 2009, published 2010).

Test system: perimenopausal and menopausal vasomotor symptoms, hot flashes and excessive sweating
Assay: Clinical use of topiramate for menopausal and perimenopausal vasomotor symptoms
Type: in vivo, human
Excerpt: Based on data and observations made by the inventor, they have found topiramate to have the following, previously undiscovered, beneficial pharmacological effects for patients with excessive sweating and hot flashes. They are as follows: • 1. […] Helps to prevent patients from experiencing hot flashes, excessive sweating, and vasomotor symptoms associated with their perimenopause and menopause. • 3. Substantial improve or completely suppress nighttime vasomotor symptoms, excessive sweating, and hot flashes associated with perimenopause and menopause. • 4. Substantial improve or completely suppress daytime vasomotor symptoms, excessive sweating, and hot flashes associated with perimenopause and menopause. • 5. Effective in controlling these symptoms when taken only on an as needed basis. […] Optionally, the topiramate can be taken as a low dose on an as-needed basis. […] a person had been stable on their current treatment for Panic and Major Depressive Disorders with a satisfactory remission for several years and without any side effect complaints. However, now […], they started developing menopausal symptoms of hot flashes and excessive sweating. After counselling and informed consent about the off-label use, they took a trial of topiramate 25 mg by mouth twice daily. Upon follow up, they confirmed that the excessive sweating was improved with this low dose of topiramate and that they have found it to be effective when taken on an as needed basis, depending on their expectations of physical activity and weather/temperature conditions. […] Several other similar clinical examples were observed.

## CC1(C)O[C@@H]2[C@@H](CO[C@@]3(COS(N)(=O)=O)OC(C)(C)O[C@@H]23)O1 [topiramate]
A person, menopausal hot flashes and excessive sweating, topiramate 25 mg by mouth twice daily, at follow up
  excessive sweating: improved
A person, low dose topiramate taken as needed, depending on physical activity and weather/temperature
  effectiveness when taken on an as needed basis: effective
A person, topiramate 25 mg by mouth twice daily
  adverse effects: no adverse effects
inventor's patients, small doses
  side effects: minimal to no side effects
Perimenopausal and menopausal patients, inventor's data and observations
  vasomotor symptoms, excessive sweating and hot flashes: Substantial improvement
Perimenopausal and menopausal women, doses as low as 12.5 mg per day
  treating hot flashes and hyperhidrosis: highly effective
